Measurements reported in PubChem BioAssay AID248 (DTP/NCI, 2004).
Inconclusive results and toxic doses are left out. Rule as the data show it: active = T/C of 150% or more; inactive = T/C below 125%.

Test system: L1210 leukemia ip in BDF1 mice, survival T/C
Experiment: NCI In Vivo Anticancer Drug Screen. Data for tumor model L1210 Leukemia (intraperitoneal) in B6D2F1 (BDF1) mice
Settings: endpoint: mean survival time, higher = longer survival
Summary of the method: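 Read-out is survival time, reported as the treated-group measurement over the vehicle-control measurement.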

[1] = dose: 50.0 mg/kg/injection, schedule: Q01DX001 (ip), vehicle: saline
[2] = dose: 100.0 mg/kg/injection, schedule: Q01DX001 (ip), vehicle: saline
[3] = dose: 100.0 mg/kg/injection, schedule: Q01DX001 (ip), vehicle: Klucel (hydroxypropylcellulose) (HPC)
[4] = dose: 200.0 mg/kg/injection, schedule: Q01DX001 (ip), vehicle: Klucel (hydroxypropylcellulose) (HPC)
[5] = dose: 400.0 mg/kg/injection, schedule: Q01DX001 (ip), vehicle: Klucel (hydroxypropylcellulose) (HPC)
[6] = dose: 100.0 mg/kg/injection, schedule: Q04DX003 (ip), vehicle: saline
[7] = dose: 200.0 mg/kg/injection, schedule: Q04DX003 (ip), vehicle: saline
[8] = dose: 400.0 mg/kg/injection, schedule: Q04DX003 (ip), vehicle: saline
[9] = dose: 100.0 mg/kg/injection, schedule: Q01DX009 (ip), vehicle: saline sonified
[10] = dose: 100.0 mg/kg/injection, schedule: Q04DX003 (ip), vehicle: Klucel (hydroxypropylcellulose) (HPC)
[11] = dose: 50.0 mg/kg/injection, schedule: Q01DX009 (ip), vehicle: Klucel (hydroxypropylcellulose) (HPC)

Measured: T/C

NC(CSC(c1ccccc1)(c1ccccc1)c1ccccc1)C(=O)OC(c1ccccc1)c1ccccc1 (centres undefined)
inactive: dose: 264.0 mg/kg/injection, schedule: Q01DX001 (ip), vehicle: carboxymethylcellulose (CMC) 113 % of control

CC(=O)OC(C(C)=O)C(C)=O.CC(=O)OC(C(C)=O)C(C)=O.[Cu]
inactive: dose: 12.0 mg/kg/injection, schedule: Q01DX001 (ip), vehicle: saline 93 % of control | dose: 12.0 mg/kg/injection, schedule: Q04DX003 (ip), vehicle: saline 96 % of control | dose: 25.0 mg/kg/injection, schedule: Q01DX001 (ip), vehicle: saline 95 % of control | dose: 25.0 mg/kg/injection, schedule: Q04DX003 (ip), vehicle: saline 96 % of control | [1] 101 % of control | dose: 50.0 mg/kg/injection, schedule: Q04DX003 (ip), vehicle: saline 103 % of control

CCOc1c(CNC(=O)CCl)cc(N)cc1CNC(=O)CCl
inactive: [1] 106 % of control | [2] 111 % of control

CC(=O)OC1C(C=C(C)C)OC2CC3(C)C4=C(CCC3(C)C2C1C)C1(C)CCC(O)C(C)(C)C1CC4 (centres undefined)
inactive: dose: 20.0 mg/kg/injection, schedule: Q01DX001 (sc), vehicle: steriod suspending solution 104 % of control | dose: 40.0 mg/kg/injection, schedule: Q01DX001 (sc), vehicle: steriod suspending solution 102 % of control | dose: 50.0 mg/kg/injection, schedule: Q01DX001 (sc), vehicle: steriod suspending solution 101 % of control | dose: 80.0 mg/kg/injection, schedule: Q01DX001 (sc), vehicle: steriod suspending solution 102 % of control | dose: 100.0 mg/kg/injection, schedule: Q01DX001 (sc), vehicle: steriod suspending solution 92 % of control | dose: 160.0 mg/kg/injection, schedule: Q01DX001 (sc), vehicle: steriod suspending solution 102 % of control | dose: 200.0 mg/kg/injection, schedule: Q01DX001 (sc), vehicle: steriod suspending solution 97 % of control | dose: 400.0 mg/kg/injection, schedule: Q01DX001 (sc), vehicle: steriod suspending solution 106 % of control

CC1(C)C2CC3C(CCC4C(=O)OC(=O)C43)C1C2 (centres undefined)
inactive: [3] 97 % of control | [4] 98 % of control | [5] 103 % of control

O=C(OCCBr)c1ccccc1[N+](=O)[O-]
inactive: [6] 105 % of control | [7] 97 % of control | [8] 100 % of control

N=c1c2c(N)nc(N)nc2c2ccccc2n1O
inactive: dose: 50.0 mg/kg/injection, schedule: Q04DX002 (ip), vehicle: saline 97 % of control | dose: 100.0 mg/kg/injection, schedule: Q04DX002 (ip), vehicle: saline 104 % of control | dose: 200.0 mg/kg/injection, schedule: Q04DX002 (ip), vehicle: saline 101 % of control

CN(C)CCOC(=O)c1ccc(N)cc1
inactive: [6] 96 % of control | [7] 98 % of control

COc1cc2ccc3c(c2cc1OC)C=[N+](C)CC3
inactive: [9] 120 % of control | dose: 100.0 mg/kg/injection, schedule: Q04DX003 (ip), vehicle: saline sonified 98 % of control | dose: 200.0 mg/kg/injection, schedule: Q01DX009 (ip), vehicle: saline sonified 114 % of control | dose: 200.0 mg/kg/injection, schedule: Q04DX003 (ip), vehicle: saline sonified 93 % of control | dose: 400.0 mg/kg/injection, schedule: Q04DX003 (ip), vehicle: saline sonified 102 % of control

Cc1cc(N(CCOS(C)(=O)=O)CCOS(C)(=O)=O)ccc1C=Nc1cccc(Br)c1
inactive: dose: 20.0 mg/kg/injection, schedule: Q04DX003 (ip), vehicle: Klucel (hydroxypropylcellulose) (HPC) 110 % of control | dose: 40.0 mg/kg/injection, schedule: Q04DX003 (ip), vehicle: Klucel (hydroxypropylcellulose) (HPC) 121 % of control | dose: 80.0 mg/kg/injection, schedule: Q04DX003 (ip), vehicle: Klucel (hydroxypropylcellulose) (HPC) 98 % of control | [10] 120 % of control

O=C(Nc1ccc(F)cc1)NN1CCOCC1
inactive: [11] 104 % of control | dose: 100.0 mg/kg/injection, schedule: Q01DX009 (ip), vehicle: Klucel (hydroxypropylcellulose) (HPC) 90 % of control | dose: 200.0 mg/kg/injection, schedule: Q01DX009 (ip), vehicle: Klucel (hydroxypropylcellulose) (HPC) 97 % of control

CC(C)OP(=S)(S)OC(C)C
inactive: [6] 112 % of control | [7] 96 % of control | [8] 102 % of control

O=C(Cc1ccccc1)NCc1ccco1
inactive: dose: 25.0 mg/kg/injection, schedule: Q01DX009 (ip), vehicle: Klucel (hydroxypropylcellulose) (HPC) 100 % of control | [11] 94 % of control | dose: 100.0 mg/kg/injection, schedule: Q04DX002 (ip), vehicle: Klucel (hydroxypropylcellulose) (HPC) 90 % of control

C(C#Cc1ccccc1)#Cc1ccccc1
inactive: [6] 94 % of control | [7] 100 % of control | [8] 97 % of control

OCCSc1ccc(Cl)cc1
inactive: dose: 100.0 mg/kg/injection, schedule: Q01DX009 (ip), vehicle: other 97 % of control | dose: 200.0 mg/kg/injection, schedule: Q01DX009 (ip), vehicle: other 95 % of control

CC(=O)N(C=C(C#N)C#N)c1ccccc1
inactive: [3] 104 % of control | [10] 108 % of control | [4] 106 % of control | dose: 200.0 mg/kg/injection, schedule: Q04DX003 (ip), vehicle: Klucel (hydroxypropylcellulose) (HPC) 96 % of control | dose: 400.0 mg/kg/injection, schedule: Q04DX003 (ip), vehicle: Klucel (hydroxypropylcellulose) (HPC) 116 % of control

COc1ccc(C2NC(=O)NC2=O)cc1OC (centres undefined)
inactive: dose: 25.0 mg/kg/injection, schedule: Q01DX009 (ip), vehicle: saline sonified 98 % of control | [1] 102 % of control | dose: 50.0 mg/kg/injection, schedule: Q01DX009 (ip), vehicle: saline sonified 106 % of control | [2] 105 % of control | [9] 101 % of control | [6] 95 % of control | dose: 200.0 mg/kg/injection, schedule: Q01DX001 (ip), vehicle: saline 105 % of control | [7] 103 % of control | dose: 400.0 mg/kg/injection, schedule: Q01DX001 (ip), vehicle: saline 105 % of control | [8] 97 % of control

CC(C)(C)C1=CC(=O)C(N2C3C4CCC(C4)C32)=C(N2C3C4CCC(C4)C32)C1=O (centres undefined)
inactive: [3] 96 % of control | [4] 94 % of control | [5] 87 % of control

Cn1c(=O)c(Br)c(N)c2ccccc21
inactive: dose: 100.0 mg/kg/injection, schedule: Q01DX001 (ip), vehicle: other 101 % of control | dose: 200.0 mg/kg/injection, schedule: Q01DX001 (ip), vehicle: other 101 % of control | dose: 400.0 mg/kg/injection, schedule: Q01DX001 (ip), vehicle: other 101 % of control

O=C1C2=C(C(=O)c3ccccc31)C1C=CC2CC1
inactive: dose: 50.0 mg/kg/injection, schedule: Q01DX001 (ip), vehicle: carboxymethylcellulose (CMC) 111 % of control | dose: 100.0 mg/kg/injection, schedule: Q01DX001 (ip), vehicle: carboxymethylcellulose (CMC) 101 % of control

Cn1cnc([N+](=O)[O-])c1Sc1nc(N)nc2c1ncn2C1OC(CO)C(O)C1O (centres undefined)
inactive: dose: 0.94 mg/kg/injection, schedule: Q01DX Z (ip), vehicle: methylcellulose (MC) 121 % of control | dose: 1.88 mg/kg/injection, schedule: Q01DX Z (ip), vehicle: methylcellulose (MC) 121 % of control | dose: 3.75 mg/kg/injection, schedule: Q01DX Z (ip), vehicle: methylcellulose (MC) 116 % of control | dose: 7.5 mg/kg/injection, schedule: Q01DX Z (ip), vehicle: methylcellulose (MC) 116 % of control | dose: 15.0 mg/kg/injection, schedule: Q01DX Z (ip), vehicle: methylcellulose (MC) 103 % of control

C=CCN(CC=C)c1nc(Oc2ccccc2)nc(Oc2ccccc2)n1
inactive: dose: 25.6 mg/kg/injection, schedule: Q04DX002 (ip), vehicle: saline with Tween-80 104 % of control | dose: 64.0 mg/kg/injection, schedule: Q04DX002 (ip), vehicle: saline with Tween-80 101 % of control | dose: 100.0 mg/kg/injection, schedule: Q04DX003 (ip), vehicle: saline with Tween-80 89 % of control | dose: 160.0 mg/kg/injection, schedule: Q04DX002 (ip), vehicle: saline with Tween-80 93 % of control | dose: 200.0 mg/kg/injection, schedule: Q04DX003 (ip), vehicle: saline with Tween-80 92 % of control | dose: 400.0 mg/kg/injection, schedule: Q04DX002 (ip), vehicle: saline with Tween-80 89 % of control | dose: 400.0 mg/kg/injection, schedule: Q04DX003 (ip), vehicle: saline with Tween-80 93 % of control

Cc1cccc(N)[n+]1CCC(=O)O
inactive: dose: 75.0 mg/kg/injection, schedule: Q04DX003 (ip), vehicle: saline 101 % of control | dose: 150.0 mg/kg/injection, schedule: Q04DX003 (ip), vehicle: saline 94 % of control | dose: 300.0 mg/kg/injection, schedule: Q04DX003 (ip), vehicle: saline 95 % of control
